This is an account of results in patent publication US20260070945A1, “MACROCYCLIC IMMUNOMODULATORS” (Bristol-Myers Squibb Company, priority 2022, published 2026).

*1 amine or outer side, *2 acyl side, *3 side chain or, on linkers, in order; H or OH if unused. Where a SMILES comes first, the peptide text is derived from it. Bridges are numbered along the chain shown (N, C = ends). [ ]: non-standard residue; d: D form. The star is where a group is joined. ξ: configuration not given here. Trp(βS-Me) = C[C@@H](c1c[nH]c2ccccc12)[C@H](N)C(=O)O; Phe(3-CF3) = N[C@@H](Cc1cccc(C(F)(F)F)c1)C(=O)O; Phe(4-CF3) = N[C@@H](Cc1ccc(C(F)(F)F)cc1)C(=O)O; Phe(4-COOH) = N[C@@H](Cc1ccc(C(=O)O)cc1)C(=O)O; d(γGlu) = O=C(O)[C@@H](CCC(=O)[*:2])N[*:1]; Bip = N[C@@H](Cc1ccc(-c2ccccc2)cc1)C(=O)O; Phe(4-NH2) = Nc1ccc(C[C@H](N)C(=O)O)cc1; NH(CH2)14COOH = O=C(O)CCCCCCCCCCCCCCN*; Phe(3-Me) = Cc1cccc(C[C@H](N)C(=O)O)c1; γGlu = O=C(O)[C@H](CCC(=O)[*:2])N[*:1]; NH(CH2)8CO = O=C(CCCCCCCCN[*:1])[*:2]; NH(CH2)12COOH = O=C(O)CCCCCCCCCCCCN*; Val(3-OH) = CC(C)(O)[C@H](N)C(=O)O; Cha = N[C@@H](CC1CCCCC1)C(=O)O; Ile(3ξ) = CCC(C)[C@H](N)C(=O)O; Thr(3ξ) = CC(O)[C@H](N)C(=O)O; 12Ado = NCCCCCCCCCCCC(=O)O; Carboxymethyl = O=C(O)C*; NMeA = CN[C@@H](C)C(=O)O; Orn = NCCC[C@H](N)C(=O)O; Aun = NCCCCCCCCCCC(=O)O; Dab = NCC[C@H](N)C(=O)O; AEEA = NCCOCCOCC(=O)O; Ac3c = NC1(C(=O)O)CC1

By IC50 is commonly meant the concentration that inhibits the measured activity by half.

For one experiment, the target named is T1, PD-1/PD-L1 interaction (PE-labeled human PD-L1-Ig binding to Jurkat cell line over-expressing human PD-1) (Homo sapiens, UniProt Q15116).
T1 construct: expressed in transfected cells; host or cells: Jurkat
T1 sequence (Q15116 25-288): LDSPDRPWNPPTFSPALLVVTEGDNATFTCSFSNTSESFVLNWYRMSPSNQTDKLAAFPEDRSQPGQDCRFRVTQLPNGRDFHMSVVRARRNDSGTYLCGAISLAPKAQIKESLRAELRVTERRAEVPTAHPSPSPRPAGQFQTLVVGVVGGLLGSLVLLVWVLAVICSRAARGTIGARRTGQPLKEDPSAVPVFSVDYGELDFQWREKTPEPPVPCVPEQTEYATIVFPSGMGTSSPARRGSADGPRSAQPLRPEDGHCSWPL
Kind of experiment: Jurkat-PD-1 Cell Binding High-Content Screening Assay (CBA). The settings on record: Jurkat-hPD-1 cells, PE-labeled PD-L1-Ig 20 nM final; read-out: Jurkat HPD1 PDL1 IC50. A digest of the protocol:
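Binding of 20 nM (final) PE-tagged PD-L1-Ig to compound-pretreated Jurkat-hPD-1 cells was measured by high-content imaging after 1 h. Pretreatment ran 2 h at 37 °C in DMEM with 10% fetal calf serum.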
Regarding `Cc1cccc(C[C@@H]2NC(=O)[C@H](CC(=O)O)NC(=O)[C@H](Cc3ccc(OCC(=O)O)cc3)NC(=O)[C@H](Cc3ccc(OCC(=O)O)cc3)NC(=O)CSC[C@@H](C(=O)NC3(C(=O)NCCOCCOCC(=O)NCCCCCCCCCCC(=O)O)CC3)NC(=O)[C@H](CCCNC(=N)N)NC(=O)[C@H](C(C)C)NC(=O)[C@H](CC3CCCCC3)NC(=O)[C@H](CCN)NC(=O)[C@@H](CC(C)C)NC(=O)[C@H](C)N(C)C(=O)[C@H](Cc3ccc(O)cc3)NC(=O)[C@H](Cc3ccc(-c4ccccc4)cc3)NC(=O)[C@H](Cc3ccc(O)cc3)NC2=O)c1` [Example 1253] ({CH2CO}-Y(Carboxymethyl)Y(Carboxymethyl)D[Phe(3-Me)]Y[Bip]Y[NMeA][dL][Dab][Cha]VRC[Ac3c][AEEA][Aun]-OH; thioether N-14), the IC50 stood at 16.6 nM.
Still for that read-out and setting: in the case of `Cc1cccc(C[C@@H]2NC(=O)[C@H](CC(=O)O)NC(=O)[C@H](Cc3ccc(OCC(=O)O)cc3)NC(=O)[C@H](C(C)O)NC(=O)CSC[C@@H](C(=O)N[C@@H](CCN)C(=O)NCCCCCCCCCCC(=O)O)NC(=O)[C@H](C(C)O)NC(=O)[C@H](C(C)C)NC(=O)[C@H](CC3CCCCC3)NC(=O)[C@H](CCN)NC(=O)[C@@H](CC(C)C)NC(=O)[C@H](C)N(C)C(=O)[C@H](Cc3ccc(OCC(=O)O)cc3)NC(=O)[C@H](Cc3ccc(-c4ccccc4)cc3)NC(=O)[C@H](Cc3ccc(OCC(=O)O)cc3)NC2=O)c1` (stereo partly drawn) [Example 2310] ({CH2CO}-[Thr(3ξ)]Y(Carboxymethyl)D[Phe(3-Me)]Y(Carboxymethyl)[Bip]Y(Carboxymethyl)[NMeA][dL][Dab][Cha]V[Thr(3ξ)]C[Dab][Aun]-OH; thioether N-14) it was 12.1 nM.
As for `CC(C)C[C@@H]1NC(=O)[C@H]([C@@H](C)c2c[nH]c3ccccc23)NC(=O)[C@H](CC(=O)O)NC(=O)[C@H](Cc2ccc(OCC(=O)O)cc2)NC(=O)[C@H](Cc2ccc(OCC(=O)O)cc2)NC(=O)CSC[C@@H](C(=O)NC2(C(=O)NCCOCCOCC(=O)NCCCCCCCCCCC(=O)O)CC2)NC(=O)[C@H](CCCNC(=N)N)NC(=O)[C@H](C(C)C)NC(=O)[C@H](CC2CCCCC2)NC(=O)[C@H](CCN)NC(=O)[C@@H](CC(C)C)NC(=O)[C@H](C)N(C)C(=O)[C@H](C(C)C)NC(=O)[C@H](Cc2ccc(-c3ccccc3)cc2)NC1=O` [Example 1271] ({CH2CO}-Y(Carboxymethyl)Y(Carboxymethyl)D[Trp(βS-Me)]L[Bip]V[NMeA][dL][Dab][Cha]VRC[Ac3c][AEEA][Aun]-OH; thioether N-14), the half-inhibitory concentration (IC50) was found to be 39.1 nM.
The same measure, in the same setting: next, `CC(C)C[C@@H]1NC(=O)[C@H](Cc2c[nH]c3ccccc23)NC(=O)[C@H](CC(=O)O)NC(=O)[C@H](Cc2ccc(OCC(=O)O)cc2)NC(=O)[C@H](Cc2ccccc2)NC(=O)CSC[C@@H](C(=O)N[C@@H](CCCN)C(=O)NCCCCCCCCCCC(=O)O)NC(=O)[C@@H](CCC(N)=O)NC(=O)[C@H](C(C)C)NC(=O)[C@H](CC(C)C)NC(=O)[C@H](CC(N)=O)NC(=O)[C@@H](CC(C)C)NC(=O)[C@H](C)N(C)C(=O)[C@H](C(C)C)NC(=O)[C@H](Cc2ccc(-c3ccccc3)cc2)NC1=O` [Example 1347] ({CH2CO}-FY(Carboxymethyl)DWL[Bip]V[NMeA][dL]NLV[dQ]C[Orn][Aun]-OH; thioether N-14): 301 nM.
For `CC(C)C[C@@H]1NC(=O)[C@H](Cc2c[nH]c3ccccc23)NC(=O)[C@H](CC(=O)O)NC(=O)[C@H](Cc2ccc(C(=O)O)cc2)NC(=O)[C@H](Cc2ccc(OCC(=O)O)cc2)NC(=O)CSC[C@@H](C(=O)N[C@@H](CCN)C(=O)NCCOCCOCC(=O)NCCCCCCCCCCC(=O)O)NC(=O)[C@H](Cc2cnc[nH]2)NC(=O)[C@H](C(C)C)NC(=O)[C@H](CC2CCCCC2)NC(=O)[C@H](CCN)NC(=O)[C@@H](CC(C)C)NC(=O)[C@H](C)N(C)C(=O)[C@H](C(C)C)NC(=O)[C@H](Cc2ccc(-c3ccccc3)cc2)NC1=O` [Example 1130] ({CH2CO}-Y(Carboxymethyl)[Phe(4-COOH)]DWL[Bip]V[NMeA][dL][Dab][Cha]VHC[Dab][AEEA][Aun]-OH; thioether N-14), the IC50 is 12.3 nM.

Staying with this experiment, now noted: PE-labeled PD-L1-Ig 20 nM final, Jurkat-hPD-1 cells; read-out: Jurkat HPD1 PDL1 IC50.
As to `CC(=O)NCCCC[C@@H]1NC(=O)[C@H](C(C)(C)O)NC(=O)[C@H](CC2CCCCC2)NC(=O)[C@H](CCN)NC(=O)[C@@H](CC(C)C)NC(=O)[C@H](C)N(C)C(=O)[C@H](CCC(N)=O)NC(=O)[C@H](Cc2ccc(-c3ccccc3)cc2)NC(=O)[C@H](Cc2ccc(C(=O)O)cc2)NC(=O)[C@H](Cc2cccc(C(F)(F)F)c2)NC(=O)[C@H](CC(=O)O)NC(=O)[C@H](Cc2ccc(OCC(=O)O)cc2)NC(=O)[C@H](Cc2ccc(C(F)(F)F)cc2)NC(=O)CSC[C@@H](C(=O)N[C@@H](CCN)C(=O)NCCOCCOCC(=O)NCCCCCCCCCCCCC(=O)O)NC1=O` [Example 2611] ({CH2CO}-[Phe(4-CF3)]Y(Carboxymethyl)D[Phe(3-CF3)][Phe(4-COOH)][Bip]Q[NMeA][dL][Dab][Cha][Val(3-OH)]K(Ac)C[Dab][AEEA]-{NH(CH2)12COOH}; thioether N-14), the IC50 worked out at 60 nM.
Same read-out and setting: in the case of `CC(=O)NCCCC[C@@H]1NC(=O)[C@H](C(C)(C)O)NC(=O)[C@H](CC2CCCCC2)NC(=O)[C@H](CCN)NC(=O)[C@@H](CC(C)C)NC(=O)[C@H](C)N(C)C(=O)[C@H](CCC(N)=O)NC(=O)[C@H](Cc2ccc(-c3ccccc3)cc2)NC(=O)[C@H](Cc2ccc(C(=O)O)cc2)NC(=O)[C@H](Cc2cccc(C)c2)NC(=O)[C@H](CC(=O)O)NC(=O)[C@H](Cc2ccc(C(F)(F)F)cc2)NC(=O)[C@H](Cc2ccc(OCC(=O)O)cc2)NC(=O)CSC[C@@H](C(=O)N[C@@H](CCN)C(=O)NCCOCCOCC(=O)NCCCCCCCCCCC(=O)O)NC1=O` [Example 2595] ({CH2CO}-Y(Carboxymethyl)[Phe(4-CF3)]D[Phe(3-Me)][Phe(4-COOH)][Bip]Q[NMeA][dL][Dab][Cha][Val(3-OH)]K(Ac)C[Dab][AEEA][Aun]-OH; thioether N-14) it was 11.7 nM; in that of `Cc1cccc(C[C@@H]2NC(=O)[C@H](CC(=O)O)NC(=O)[C@H](Cc3ccc(C(=O)O)cc3)NC(=O)[C@H](CCN)NC(=O)CSC[C@@H](C(=O)N[C@@H](CCN)C(=O)NCCOCCOCC(=O)NCCOCCOCC(=O)NCCCCCCCCCCC(=O)O)NC(=O)[C@H](CCC(=O)O)NC(=O)[C@H](C(C)C)NC(=O)[C@H](CC3CCCCC3)NC(=O)[C@H](CCN)NC(=O)[C@@H](CC(C)C)NC(=O)[C@H](C)N(C)C(=O)[C@H](Cc3ccc(C(=O)O)cc3)NC(=O)[C@H](Cc3ccc(-c4ccccc4)cc3)NC(=O)[C@H](Cc3ccc(C(=O)O)cc3)NC2=O)c1` [Example 2521] ({CH2CO}-[Dab][Phe(4-COOH)]D[Phe(3-Me)][Phe(4-COOH)][Bip][Phe(4-COOH)][NMeA][dL][Dab][Cha]VEC[Dab][AEEA][AEEA][Aun]-OH; thioether N-14), 13.4 nM.
For `CC(=O)NCCCC[C@@H]1NC(=O)[C@H](C(C)(C)O)NC(=O)[C@H](CC2CCCCC2)NC(=O)[C@H](CCN)NC(=O)[C@@H](CC(C)C)NC(=O)[C@H](C)N(C)C(=O)[C@H](CCC(N)=O)NC(=O)[C@H](Cc2ccc(-c3ccccc3)cc2)NC(=O)[C@H](CC(C)C)NC(=O)[C@H](Cc2c[nH]c3ccccc23)NC(=O)[C@H](CC(=O)O)NC(=O)[C@H](Cc2ccc(C(=O)O)cc2)NC(=O)[C@H](Cc2ccc(OCC(=O)O)cc2)NC(=O)CSC[C@@H](C(=O)NCCOCCOCC(=O)NCCCCCCCCCCC(=O)O)NC1=O` [Example 2459] ({CH2CO}-Y(Carboxymethyl)[Phe(4-COOH)]DWL[Bip]Q[NMeA][dL][Dab][Cha][Val(3-OH)]K(Ac)C[AEEA][Aun]-OH; thioether N-14), the IC50 was 45.1 nM.
Take `Cc1cccc(C[C@@H]2NC(=O)[C@H](CC(=O)O)NC(=O)[C@H](Cc3ccc(OCC(=O)O)cc3)NC(=O)[C@H]([C@@H](C)O)NC(=O)CSC[C@@H](C(=O)N[C@@H](CCN)C(=O)NCCOCCOCC(=O)NCCCCCCCCCCCC(=O)O)NC(=O)C3(CC3)NC(=O)[C@H](C(C)C)NC(=O)[C@H](CC3CCCCC3)NC(=O)[C@H](CCN)NC(=O)[C@@H](CC(C)C)NC(=O)[C@H](C)N(C)C(=O)[C@H](Cc3ccc(OCC(=O)O)cc3)NC(=O)[C@H](Cc3ccc(-c4ccccc4)cc3)NC(=O)[C@H](Cc3ccc(OCC(=O)O)cc3)NC2=O)c1` [Example 2672] ({CH2CO}-TY(Carboxymethyl)D[Phe(3-Me)]Y(Carboxymethyl)[Bip]Y(Carboxymethyl)[NMeA][dL][Dab][Cha]V[Ac3c]C[Dab][AEEA][12Ado]-OH; thioether N-14): the IC50 turned out to be 200 nM.
Turning to `CCC(C)[C@@H]1NC(=O)[C@H](Cc2ccc(-c3ccccc3)cc2)NC(=O)[C@H](C(C)C)NC(=O)[C@H](Cc2c[nH]c3ccccc23)NC(=O)[C@H](CC(=O)O)NC(=O)[C@H](Cc2ccc(C(=O)O)cc2)NC(=O)[C@H](Cc2cnc[nH]2)NC(=O)CSC[C@@H](C(=O)N[C@@H](CCN)C(=O)NCCOCCOCC(=O)N[C@@H](CCC(=O)N[C@H](CCC(=O)NCCCCCCCCCCCCCCC(=O)O)C(=O)O)C(=O)O)NC(=O)[C@H](CCC(=O)O)NC(=O)[C@H](C(C)(C)O)NC(=O)[C@H](CC2CCCCC2)NC(=O)[C@H](CCN)NC(=O)[C@@H](CC(C)C)NC(=O)[C@H](C)N(C)C1=O` (stereo partly drawn) [Example 2634] ({CH2CO}-H[Phe(4-COOH)]DWV[Bip][Ile(3ξ)][NMeA][dL][Dab][Cha][Val(3-OH)]EC[Dab][AEEA][γGlu][d(γGlu)]-{NH(CH2)14COOH}; thioether N-14), the IC50 amounted to 188 nM.
As to `Cc1cccc(C[C@@H]2NC(=O)[C@H](CC(=O)O)NC(=O)[C@H](Cc3ccc(N)cc3)NC(=O)[C@H]([C@@H](C)O)NC(=O)CSC[C@@H](C(=O)N[C@@H](CCN)C(=O)NCCCCCCCCC(=O)NCCCCCCCCCCC(=O)O)NC(=O)[C@H](CCCN)NC(=O)[C@H](C(C)C)NC(=O)[C@H](CC3CCCCC3)NC(=O)[C@H](CCN)NC(=O)[C@@H](CC(C)C)NC(=O)[C@H](C)N(C)C(=O)[C@H](Cc3ccc(N)cc3)NC(=O)[C@H](Cc3ccc(-c4ccccc4)cc3)NC(=O)[C@H](Cc3ccc(N)cc3)NC2=O)c1` [Example 2689] ({CH2CO}-T[Phe(4-NH2)]D[Phe(3-Me)][Phe(4-NH2)][Bip][Phe(4-NH2)][NMeA][dL][Dab][Cha]V[Orn]C[Dab][NH(CH2)8CO][Aun]-OH; thioether N-14), the half-inhibitory concentration (IC50) was 6.1 nM.
